Our source for the solubility in ethanol and solubility in water values is patent US20250333437A1, “USE OF NON-INFORMAT[…] CHAINS TO MODIFY THE […] PEPTIDES” (priority 2022, published 2025).

A short description of this data set: Solubility of the poison ivy antigen in water and ethanol. The class given is physicochemical. The source says: The present inventors discovered the phenomenon of tissue deposition by precipitation (TDBP) with an allergy vaccine that was a catechol and naturally had the requisite solubility properties to achieve TDBP. In particular, the poison ivy antigen that induced tolerance when precipitated in muscle by precipitation is a catechol which is naturally insoluble in water and for which effective doses are soluble in small volumes of the pharmaceutically acceptable water-miscible solvent ethanol. The inventors termed the phenomenon vaccine delivery by precipitation (VDBP) which is a preferred embodiment of TDBP and they interpreted its probable mechanism of action.
FIG. 1 is a graphic representation of the function of the adaptive immune system in the skin, reproduced from Teunissen on intradermal immunization. It is a cartoon of how immunomodulation takes place. […] These recognize and take up molecules or particles of an antigen which they then present to naive T lymphocytes which then mature along one of what are shown here as seven different pathways. The location is the cortex of a lymph node. Dendritic cells (DC's) from either homeostatic or inflamed tissue present antigenic epitopes in their MHC Class Il molecular grooves, to naive T lymphocytes (Tn). […]

urushiol [poison ivy antigen]: the solubility in ethanol entry (effective doses in small volumes of ethanol) is reported as “soluble”. The solubility in water result (water) is “insoluble”.
